In PubChem BioAssay AID1745844 (Carcinogenic Potency Database (CPDB), 2022):
The source made the active and inactive calls. How the calls were made is not given here.

Tested on: rodent lifetime carcinogenesis bioassay, tumor incidence TD50
Assay: carcinogenic potency in animals, long-term in vivo studies, CPDB compilation (AID 1745844)

CCCCNC(N)=O
carcinogen call (mouse, strain C57BL/6, females, in feed, site: any site (literature study), lesion: several types, types named in the paper, dosed 52 weeks, study length 69 weeks): negative (inactive)
carcinogen call (mouse, strain C57BL/6, females, in feed, site: liver, lesion: hepatocellular carcinoma, dosed 52 weeks, study length 69 weeks): negative (inactive)
carcinogen call (mouse, strain C57BL/6, females, in feed, site: lung, lesion: adenoma, dosed 52 weeks, study length 69 weeks): negative (inactive)
TD50 (mouse, strain C57BL/6, males, in feed, site: any site (literature study), lesion: several types, types named in the paper, dosed 52 weeks, study length 69 weeks): 699 mg/kg/day (inactive)
carcinogen call (mouse, strain C57BL/6, males, in feed, site: liver, lesion: hepatocellular carcinoma, dosed 52 weeks, study length 69 weeks): negative (inactive)
TD50 (mouse, strain C57BL/6, males, in feed, site: lung, lesion: adenoma, dosed 52 weeks, study length 69 weeks): 5510 mg/kg/day (inactive)
carcinogen call (rat, strain Fischer 344, females, in feed, site: any site (literature study), lesion: several types, types named in the paper, dosed 52 weeks, study length 69 weeks): negative (inactive)
carcinogen call (rat, strain Fischer 344, females, in feed, site: liver, lesion: one or several types, types not named, dosed 52 weeks, study length 69 weeks): negative (inactive)
carcinogen call (rat, strain Fischer 344, males, in feed, site: any site (literature study), lesion: several types, types named in the paper, dosed 52 weeks, study length 69 weeks): negative (inactive)
carcinogen call (rat, strain Fischer 344, males, in feed, site: liver, lesion: one or several types, types not named, dosed 52 weeks, study length 69 weeks): negative (inactive)

CCCc1cc(=O)[nH]c(=S)[nH]1
TD50 (mouse, strain C57BL, both sexes, in feed, site: pituitary gland, lesion: adenoma, dosed 73 weeks, study length 73 weeks): 409 mg/kg/day
TD50 (rat, strain Long-Evans, males, in feed, site: thyroid gland, lesion: adenoma, dosed 52 weeks, study length 52 weeks): 10.3 mg/kg/day
TD50 (rat, strain Wistar albino, females, in drinking water, site: thyroid gland, lesion: adenoma, dosed 78 weeks, study length 78 weeks): 15.8 mg/kg/day
TD50 (rat, strain Wistar albino, females, in drinking water, site: thyroid gland, lesion: carcinoma, dosed 78 weeks, study length 78 weeks): 115 mg/kg/day
TD50 (rat, strain Wistar albino, males, in drinking water, site: thyroid gland, lesion: adenoma, dosed 78 weeks, study length 78 weeks): 17.2 mg/kg/day
TD50 (rat, strain Wistar albino, males, in drinking water, site: thyroid gland, lesion: carcinoma, dosed 78 weeks, study length 78 weeks): 79.3 mg/kg/day
carcinogen call (rat, strain Wistar, males, in drinking water, site: thyroid gland, lesion: adenoma, dosed 26 weeks, study length 104 weeks): negative (inactive)

COc1cc2c(c3c1c(=O)c1ccccc1n3C)C=CC(C)(C)O2
TD50 (mouse, strain B6C3F1, females, i.p., site: liver, lesion: hepatocellular adenoma + hepatocellular carcinoma + neoplastic nodule, dosed 48 weeks, study length 78 weeks): 2.46 mg/kg/day
TD50 (mouse, strain B6C3F1, females, i.p., site: lung, lesion: alveolar/bronchiolar adenoma + alveolar/bronchiolar carcinoma, dosed 48 weeks, study length 78 weeks): 2.46 mg/kg/day
TD50 (rat, strain Sprague-Dawley, females, i.p., site: any site (literature study), lesion: several types, types named in the paper, dosed 52 weeks, study length 80 weeks): 0.568 mg/kg/day
TD50 (rat, strain Sprague-Dawley, females, i.p., site: liver, lesion: hepatocellular adenoma + hepatocellular carcinoma + neoplastic nodule, dosed 52 weeks, study length 80 weeks): 8.75 mg/kg/day
TD50 (rat, strain Sprague-Dawley, females, i.p., site: mammary gland + peritoneum, lesion: adenocarcinoma, NOS + cystadenocarcinoma, NOS + cystadenoma, NOS + fibroadenoma + papillary adenocarcinoma + fibrosarcoma + mesothel, dosed 52 weeks, study length 80 weeks): 0.873 mg/kg/day
TD50 (rat, strain Sprague-Dawley, females, i.p., site: mammary gland, lesion: adenocarcinoma, NOS + cystadenocarcinoma, NOS + cystadenoma, NOS + fibroadenoma + papillary adenocarcinoma, dosed 52 weeks, study length 80 weeks): 0.395 mg/kg/day
TD50 (rat, strain Sprague-Dawley, females, i.p., site: mammary gland, lesion: fibroadenoma, dosed 52 weeks, study length 80 weeks): 0.455 mg/kg/day
TD50 (rat, strain Sprague-Dawley, females, i.p., site: peritoneum, lesion: fibrosarcoma + mesothelioma, malignant + sarcoma, NOS, dosed 52 weeks, study length 80 weeks): 5.86 mg/kg/day
TD50 (rat, strain Sprague-Dawley, females, i.p., site: peritoneum, lesion: sarcoma, NOS, dosed 52 weeks, study length 80 weeks): 11.4 mg/kg/day
TD50 (rat, strain Sprague-Dawley, males, i.p., site: adrenal gland, lesion: cortical adenoma, dosed 51 weeks, study length 80 weeks): 1.85 mg/kg/day
TD50 (rat, strain Sprague-Dawley, males, i.p., site: all sites + bone + peritoneum + vertebra, lesion: osteosarcoma + fibrosarcoma + mesothelioma, NOS + mesothelioma, malignant + sarcoma, NOS, dosed 51 weeks, study length 80 weeks): 0.497 mg/kg/day
TD50 (rat, strain Sprague-Dawley, males, i.p., site: all sites, lesion: osteosarcoma, dosed 51 weeks, study length 80 weeks): 0.698 mg/kg/day
TD50 (rat, strain Sprague-Dawley, males, i.p., site: any site (literature study), lesion: several types, types named in the paper, dosed 51 weeks, study length 80 weeks): 0.227 mg/kg/day
TD50 (rat, strain Sprague-Dawley, males, i.p., site: bone + vertebra, lesion: osteosarcoma, dosed 51 weeks, study length 80 weeks): 1.03 mg/kg/day
TD50 (rat, strain Sprague-Dawley, males, i.p., site: liver, lesion: hepatocellular adenoma + hepatocellular carcinoma + neoplastic nodule, dosed 51 weeks, study length 80 weeks): 2.11 mg/kg/day
TD50 (rat, strain Sprague-Dawley, males, i.p., site: peritoneum, lesion: fibrosarcoma + mesothelioma, NOS + mesothelioma, malignant + sarcoma, NOS, dosed 51 weeks, study length 80 weeks): 1.49 mg/kg/day

Nc1ccc2nc3ccccn3c2n1
TD50 (mouse, strain CDF1, females, in feed, site: blood vessels, lesion: hemangioendothelial sarcoma, dosed 82 weeks, study length 82 weeks): 43 mg/kg/day
TD50 (mouse, strain CDF1, females, in feed, site: blood vessels, lesion: several types, types named in the paper, dosed 82 weeks, study length 82 weeks): 39.9 mg/kg/day
TD50 (mouse, strain CDF1, females, in feed, site: liver, lesion: hepatocellular adenoma, dosed 82 weeks, study length 82 weeks): 170 mg/kg/day
TD50 (mouse, strain CDF1, females, in feed, site: liver, lesion: hepatocellular carcinoma, dosed 82 weeks, study length 82 weeks): 20 mg/kg/day
TD50 (mouse, strain CDF1, females, in feed, site: liver, lesion: several types, types named in the paper, dosed 82 weeks, study length 82 weeks): 12 mg/kg/day
TD50 (mouse, strain CDF1, females, in feed, site: lung, lesion: adenoma, dosed 82 weeks, study length 82 weeks): 1090 mg/kg/day
TD50 (mouse, strain CDF1, males, in feed, site: blood vessels, lesion: hemangioendothelial sarcoma, dosed 84 weeks, study length 84 weeks): 27.3 mg/kg/day
TD50 (mouse, strain CDF1, males, in feed, site: blood vessels, lesion: several types, types named in the paper, dosed 84 weeks, study length 84 weeks): 23.9 mg/kg/day
TD50 (mouse, strain CDF1, males, in feed, site: liver, lesion: hepatocellular adenoma, dosed 84 weeks, study length 84 weeks): 201 mg/kg/day
TD50 (mouse, strain CDF1, males, in feed, site: liver, lesion: hepatocellular carcinoma, dosed 84 weeks, study length 84 weeks): 255 mg/kg/day
TD50 (mouse, strain CDF1, males, in feed, site: liver, lesion: several types, types named in the paper, dosed 84 weeks, study length 84 weeks): 93.2 mg/kg/day
TD50 (mouse, strain CDF1, males, in feed, site: lung, lesion: adenoma, dosed 84 weeks, study length 84 weeks): 483 mg/kg/day
TD50 (rat, strain F344/DuCrj, females, in feed, site: Zymbal's gland, lesion: squamous-cell carcinoma, dosed 104 weeks, study length 104 weeks): 94 mg/kg/day
TD50 (rat, strain F344/DuCrj, females, in feed, site: clitoral gland, lesion: one or several types, types not named, dosed 104 weeks, study length 104 weeks): 56.4 mg/kg/day
TD50 (rat, strain F344/DuCrj, females, in feed, site: colon, lesion: adenocarcinoma, dosed 104 weeks, study length 104 weeks): 351 mg/kg/day
TD50 (rat, strain F344/DuCrj, females, in feed, site: colon, lesion: adenoma, dosed 104 weeks, study length 104 weeks): 111 mg/kg/day
TD50 (rat, strain F344/DuCrj, females, in feed, site: colon, lesion: several types, types named in the paper, dosed 104 weeks, study length 104 weeks): 81.1 mg/kg/day
TD50 (rat, strain F344/DuCrj, females, in feed, site: liver, lesion: several types, types named in the paper, dosed 104 weeks, study length 104 weeks): 351 mg/kg/day
TD50 (rat, strain F344/DuCrj, females, in feed, site: small intestine, lesion: adenocarcinoma, dosed 104 weeks, study length 104 weeks): 135 mg/kg/day
TD50 (rat, strain F344/DuCrj, females, in feed, site: small intestine, lesion: adenoma, dosed 104 weeks, study length 104 weeks): 171 mg/kg/day
TD50 (rat, strain F344/DuCrj, females, in feed, site: small intestine, lesion: mucinous carcinoma, dosed 104 weeks, study length 104 weeks): 711 mg/kg/day
TD50 (rat, strain F344/DuCrj, females, in feed, site: small intestine, lesion: several types, types named in the paper, dosed 104 weeks, study length 104 weeks): 81.1 mg/kg/day
TD50 (rat, strain F344/DuCrj, males, in feed, site: Zymbal's gland, lesion: squamous-cell carcinoma, dosed 104 weeks, study length 104 weeks): 569 mg/kg/day
TD50 (rat, strain F344/DuCrj, males, in feed, site: brain, lesion: astrocytoma, dosed 104 weeks, study length 104 weeks): 281 mg/kg/day
TD50 (rat, strain F344/DuCrj, males, in feed, site: colon, lesion: adenocarcinoma, dosed 104 weeks, study length 104 weeks): 185 mg/kg/day
TD50 (rat, strain F344/DuCrj, males, in feed, site: colon, lesion: adenoma, dosed 104 weeks, study length 104 weeks): 185 mg/kg/day
TD50 (rat, strain F344/DuCrj, males, in feed, site: colon, lesion: several types, types named in the paper, dosed 104 weeks, study length 104 weeks): 88.9 mg/kg/day
TD50 (rat, strain F344/DuCrj, males, in feed, site: liver, lesion: several types, types named in the paper, dosed 104 weeks, study length 104 weeks): 52.1 mg/kg/day
TD50 (rat, strain F344/DuCrj, males, in feed, site: small intestine, lesion: adenocarcinoma, dosed 104 weeks, study length 104 weeks): 45.1 mg/kg/day
TD50 (rat, strain F344/DuCrj, males, in feed, site: small intestine, lesion: adenoma, dosed 104 weeks, study length 104 weeks): 137 mg/kg/day
TD50 (rat, strain F344/DuCrj, males, in feed, site: small intestine, lesion: mucinous carcinoma, dosed 104 weeks, study length 104 weeks): 281 mg/kg/day
TD50 (rat, strain F344/DuCrj, males, in feed, site: small intestine, lesion: several types, types named in the paper, dosed 104 weeks, study length 104 weeks): 33.8 mg/kg/day

CC(CN1c2ccccc2Sc2ccccc21)N(C)C (stereo unspecified)
carcinogen call (mouse, strain B6C3F1, females, by gavage, site: any site (literature study), lesion: several types, types named in the paper, dosed 104 weeks, study length 105 weeks): negative (inactive)
TD50 (mouse, strain B6C3F1, females, by gavage, site: liver, lesion: hepatocellular adenoma + hepatoblastoma + hepatocellular carcinoma, dosed 104 weeks, study length 105 weeks): 47.8 mg/kg/day
TD50 (mouse, strain B6C3F1, males, by gavage, site: any site (literature study), lesion: several types, types named in the paper, dosed 103 weeks, study length 104 weeks): 393 mg/kg/day (inactive)
TD50 (mouse, strain B6C3F1, males, by gavage, site: liver, lesion: hepatocellular adenoma + hepatoblastoma + hepatocellular carcinoma, dosed 103 weeks, study length 104 weeks): 157 mg/kg/day
carcinogen call (rat, strain Fischer 344, females, by gavage, site: any site (literature study), lesion: several types, types named in the paper, dosed 103 weeks, study length 104 weeks): negative (inactive)
TD50 (rat, strain Fischer 344, females, by gavage, site: liver, lesion: hepatocellular adenoma + hepatoblastoma + hepatocellular carcinoma, dosed 103 weeks, study length 104 weeks): 418 mg/kg/day
TD50 (rat, strain Fischer 344, males, by gavage, site: any site (literature study), lesion: several types, types named in the paper, dosed 102 weeks, study length 102 weeks): 24.6 mg/kg/day
TD50 (rat, strain Fischer 344, males, by gavage, site: testis, lesion: interstitial-cell adenoma, bilateral + interstitial-cell adenoma, dosed 102 weeks, study length 102 weeks): 10.3 mg/kg/day (inactive)

CCOc1ccc(NC(C)=O)cc1[N+](=O)[O-]
carcinogen call (mouse, strain B6C3F1, females, in feed, site: any site (literature study), lesion: several types, types named in the paper, dosed 78 weeks, study length 97 weeks): negative (inactive)
TD50 (mouse, strain B6C3F1, females, in feed, site: lung, lesion: alveolar/bronchiolar adenoma + alveolar/bronchiolar carcinoma, dosed 78 weeks, study length 97 weeks): 30800 mg/kg/day
TD50 (mouse, strain B6C3F1, males, in feed, site: any site (literature study), lesion: several types, types named in the paper, dosed 78 weeks, study length 98 weeks): 3490 mg/kg/day
TD50 (mouse, strain B6C3F1, males, in feed, site: liver, lesion: hepatocellular adenoma + hepatocellular carcinoma + neoplastic nodule, dosed 78 weeks, study length 98 weeks): 2270 mg/kg/day
TD50 (mouse, strain B6C3F1, males, in feed, site: liver, lesion: hepatocellular adenoma + hepatocellular carcinoma, dosed 78 weeks, study length 98 weeks): 2270 mg/kg/day
carcinogen call (rat, strain Fischer 344, females, in feed, site: any site (literature study), lesion: several types, types named in the paper, dosed 78 weeks, study length 106 weeks): negative (inactive)
TD50 (rat, strain Fischer 344, females, in feed, site: liver, lesion: hepatocellular adenoma + hepatocellular carcinoma + neoplastic nodule, dosed 78 weeks, study length 106 weeks): 6240 mg/kg/day
carcinogen call (rat, strain Fischer 344, males, in feed, site: any site (literature study), lesion: several types, types named in the paper, dosed 78 weeks, study length 105 weeks): negative (inactive)
